For the test, the target named is T1, human recombinant HDAC6 (Homo sapiens, UniProt Q9UBN7).
T1 construct: purchased Calbiochem 382180
T1 sequence (Q9UBN7 1-1215): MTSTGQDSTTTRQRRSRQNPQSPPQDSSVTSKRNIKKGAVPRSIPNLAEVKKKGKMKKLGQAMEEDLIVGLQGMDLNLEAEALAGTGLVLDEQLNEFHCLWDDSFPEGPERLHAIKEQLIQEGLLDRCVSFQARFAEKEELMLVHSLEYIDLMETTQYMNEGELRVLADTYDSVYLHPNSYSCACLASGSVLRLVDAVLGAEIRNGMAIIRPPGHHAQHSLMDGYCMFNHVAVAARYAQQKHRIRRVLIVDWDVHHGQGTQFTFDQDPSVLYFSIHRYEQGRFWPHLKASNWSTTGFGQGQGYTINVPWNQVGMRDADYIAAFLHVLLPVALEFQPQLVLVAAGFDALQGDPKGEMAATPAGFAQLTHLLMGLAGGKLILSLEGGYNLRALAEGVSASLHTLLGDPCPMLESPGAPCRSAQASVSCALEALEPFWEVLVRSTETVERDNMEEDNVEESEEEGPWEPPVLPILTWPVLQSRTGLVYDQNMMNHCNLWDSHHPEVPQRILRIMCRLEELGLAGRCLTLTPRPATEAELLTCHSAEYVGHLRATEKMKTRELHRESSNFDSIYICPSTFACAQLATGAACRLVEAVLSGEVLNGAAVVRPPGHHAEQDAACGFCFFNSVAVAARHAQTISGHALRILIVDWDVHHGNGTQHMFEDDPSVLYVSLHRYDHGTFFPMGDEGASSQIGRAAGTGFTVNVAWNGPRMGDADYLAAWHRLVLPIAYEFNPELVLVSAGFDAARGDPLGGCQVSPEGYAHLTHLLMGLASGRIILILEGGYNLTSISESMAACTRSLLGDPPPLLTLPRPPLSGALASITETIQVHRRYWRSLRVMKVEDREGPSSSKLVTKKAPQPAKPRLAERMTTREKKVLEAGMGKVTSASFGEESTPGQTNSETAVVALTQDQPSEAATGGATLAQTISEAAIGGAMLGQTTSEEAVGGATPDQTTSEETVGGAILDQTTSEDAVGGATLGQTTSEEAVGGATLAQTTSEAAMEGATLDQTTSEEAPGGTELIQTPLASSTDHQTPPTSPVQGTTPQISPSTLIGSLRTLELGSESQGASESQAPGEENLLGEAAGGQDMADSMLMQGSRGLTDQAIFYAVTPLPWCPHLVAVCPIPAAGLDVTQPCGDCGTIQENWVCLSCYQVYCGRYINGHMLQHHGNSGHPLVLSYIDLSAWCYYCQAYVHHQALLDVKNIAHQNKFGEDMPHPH
Put plainly: HDAC6 enzyme activity inhibition assay (HDAC Fluorimetric Drug Discovery Kit). The test is classed as biochemical. Particulars: for HDAC6 selectivity (fold): HDAC1 vs HDAC6; for IC50: same protocol as the HDAC1 enzyme activity test. An outline of the steps: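 Human recombinant enzyme, 0.3 μg, incubated with 10 μM Fluor de Lys-SIRT1 substrate and 5-fold compound dilutions at 30° C for 60 min. Developer II added for 30 min, then fluorescence read (Ex 360/Em 460). IC50 values derived from the fluorescence data.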

The structures appear in SMILES notation.

For `O=S(=O)(CCN1CC(O)C1)N(Cc1ccc(-c2nnc(C(F)F)o2)cc1)c1ccccc1` [Compound 11799, N-(4-(5-(difluoromethyl)-1,3,4-oxadiazol-2-yl)benzyl)-2-(3-hydroxyazetidine-1-yl)-N-phenylethane-1-sulfonamide], the “HDAC6 selectivity (fold)” value is on record as 516 fold and the half-maximal inhibitory concentration (IC50) came to 0.194 µM.

For the compound `CC(C)(C)OC(=O)N1CCC(N(Cc2ccc(-c3nnc(C(F)F)o3)cc2F)S(C)(=O)=O)CC1` [Compound 11338, tert-butyl 4-(N-(4-(5-(difluoromethyl)-1,3,4-oxadiazol-2-yl)-2-fluorobenzyl)methylsulfonamido)piperidine-1-carboxylate], the “HDAC6 selectivity (fold)” value is 195 fold and the IC50 stood at 0.513 µM.

For `CCS(=O)(=O)N(Cc1ccc(-c2nnc(C(F)F)o2)cc1F)c1ccccc1` [Compound 11154, N-(4-(5-(difluoromethyl)-1,3,4-oxadiazol-2-yl)-2-fluorobenzyl)-N-phenylethanesulfonamide], the “HDAC6 selectivity (fold)” value is on record as 5263 fold and the 50% inhibitory concentration (IC50) is 0.019 µM.

For the compound `CCN(CC)CCS(=O)(=O)N(Cc1ccc(-c2nnc(C(F)F)o2)cc1)c1ccccc1` [Compound 11798, 2-(diethylamino)-N-(4-(5-(difluoromethyl)-1,3,4-oxadiazol-2-yl)benzyl)-N-phenylethane-1-sulfonamide], the “HDAC6 selectivity (fold)” value is listed as 538 fold and the half-inhibitory concentration (IC50) was 0.186 µM.

As for `O=S(=O)(CCN1CCC(F)CC1)N(Cc1ccc(-c2nnc(C(F)F)o2)cn1)c1ccc(F)c(Cl)c1` [Compound 11786, N-(3-chloro-4-fluorophenyl)-N-((5-(5-(difluoromethyl)-1,3,4-oxadiazol-2-yl)pyridin-2-yl)methyl)-2-(4-fluoropiperidin-1-yl)ethane-1-sulfonamide], the “HDAC6 selectivity (fold)” value is 1828 fold and the IC50 came to 0.0547 µM.

For the compound `CCS(=O)(=O)N(Cc1ccc(-c2nnc(C(F)F)o2)cn1)c1ccc(CN2CCN(S(C)(=O)=O)CC2)cc1` [Compound 11387, N-((5-(5-(difluoromethyl)-1,3,4-oxadiazol-2-yl)pyridin-2-yl)methyl)-N-(4-((4-(methylsulfonyl)piperazin-1-yl)methyl)phenyl)ethanesulfonamide], the “HDAC6 selectivity (fold)” value is listed as 1087 fold and the half-maximal inhibitory concentration (IC50) was 0.092 µM.

Take `O=S(=O)(CCCN1CCC(F)(F)C1)N(Cc1ccc(-c2nnc(C(F)F)o2)cc1)c1ccccc1` [Compound 11706, N-(4-(5-(difluoromethyl)-1,3,4-oxadiazol-2-yl)benzyl)-3-(3,3-difluoropyrrolidin-1-yl)-N-phenylpropane-1-sulfonamide]: the “HDAC6 selectivity (fold)” value was determined as 150 fold and the IC50 came out at 0.662 µM.

`CS(=O)(=O)N1CC(N2CCC(S(=O)(=O)N(Cc3ccc(-c4nnc(C(F)F)o4)cc3F)c3ccc(F)c(Cl)c3)CC2)C1` [Compound 11448, N-(3-chloro-4-fluorophenyl)-N-(4-(5-(difluoromethyl)-1,3,4-oxadiazol-2-yl)-2-fluorobenzyl)-1-(1-(methylsulfonyl)azetidin-3-yl)piperidine-4-sulfonamide]: the “HDAC6 selectivity (fold)” value is 4762 fold and the half-inhibitory concentration (IC50) was 0.021 µM.

For `CC(=O)N1CCN(CCS(=O)(=O)N(Cc2ccc(-c3nnc(C(F)F)o3)cc2)c2ccccc2)CC1` [Compound 11633, 2-(4-acetylpiperazin-1-yl)-N-(4-(5-(difluoromethyl)-1,3,4-oxadiazol-2-yl)benzyl)-N-phenylethane-1-sulfonamide], the “HDAC6 selectivity (fold)” value is 2173 fold and the IC50 turned out to be 0.046 µM.

In the case of `COc1ccccc1N(Cc1ccc(-c2nnc(C(F)(F)F)o2)cc1F)S(C)(=O)=O` [Compound 11250, N-(2-fluoro-4-(5-(trifluoromethyl)-1,3,4-oxadiazol-2-yl)benzyl)-N-(2-methoxyphenyl)methanesulfonamide], the “HDAC6 selectivity (fold)” value amounted to 1000 fold and the IC50 came out at 0.1 µM.

`Cc1nccn1CCS(=O)(=O)N(Cc1ccc(-c2nnc(C(F)F)o2)cc1)c1ccccc1` [Compound 11806, N-(4-(5-(difluoromethyl)-1,3,4-oxadiazol-2-yl)benzyl)-2-(2-methyl-1H-imidazol-1-yl)-N-phenylethane-1-sulfonamide]: the “HDAC6 selectivity (fold)” value was determined as 4000 fold and the 50% inhibitory concentration (IC50) is 0.025 µM.

Consider `O=S(=O)(CCN1CC=C(c2ccc(Cl)cc2)CC1)N(Cc1ccc(-c2nnc(C(F)F)o2)cc1)c1ccccc1` [Compound 11842, 2-(4-(4-chlorophenyl)-3,6-dihydropyridin-1(2H)-yl)-N-(4-(5-(difluoromethyl)-1,3,4-oxadiazol-2-yl)benzyl)-N-phenylethane-1-sulfonamide], for which the “HDAC6 selectivity (fold)” value turned out to be 121 fold and the IC50 turned out to be 0.826 µM.

On to `Cc1cccc(N(Cc2ccc(-c3nnc(C(F)F)o3)cc2)S(=O)(=O)C2CCN(C3CCC(F)(F)CC3)CC2)c1` [Compound 11694, 1-(4,4-difluorocyclohexyl)-N-(4-(5-(difluoromethyl)-1,3,4-oxadiazol-2-yl)benzyl)-N-(m-tolyl)piperidine-4-sulfonamide], for which the “HDAC6 selectivity (fold)” value is 215 fold and the 50% inhibitory concentration (IC50) is 0.464 µM.

For the compound `CS(=O)(=O)N(Cc1ccc(-c2nnc(C(F)F)o2)cn1)c1ccccc1` [Compound 11172, N-((5-(5-(difluoromethyl)-1,3,4-oxadiazol-2-yl)pyridin-2-yl)methyl)-N-phenylmethanesulfonamide], the “HDAC6 selectivity (fold)” value was found to be 11111 fold and the IC50 is 0.009 µM.

As for `CS(=O)(=O)N(Cc1ccc(-c2nnc(C(F)F)o2)cc1F)c1nncs1` [Compound 11776, N-(4-(5-(difluoromethyl)-1,3,4-oxadiazol-2-yl)-2-fluorobenzyl)-N-(1,3,4-thiadiazol-2-yl)methanesulfonamide], the “HDAC6 selectivity (fold)” value worked out at 113 fold and the IC50 was 0.882 µM.

For `O=S(=O)(CCN1CC(F)(F)C1)N(Cc1ccc(-c2nnc(C(F)F)o2)cc1)c1ccccc1` [Compound 11821, 2-(3,3-difluoroazetidin-1-yl)-N-(4-(5-(difluoromethyl)-1,3,4-oxadiazol-2-yl)benzyl)-N-phenylethane-1-sulfonamide], the “HDAC6 selectivity (fold)” value amounted to 747 fold and the IC50 came out at 0.134 µM.

`O=S(=O)(CCN1CCN(c2ccccc2)CC1)N(Cc1ccc(-c2nnc(C(F)F)o2)cc1)c1ccccc1` [Compound 11766, N-(4-(5-(difluoromethyl)-1,3,4-oxadiazol-2-yl)benzyl)-N-phenyl-2-(4-phenylpiperazin-1-yl)ethane-1-sulfonamide]: the “HDAC6 selectivity (fold)” value amounted to 319 fold and the 50% inhibitory concentration (IC50) came to 0.313 µM.

As to `O=S(=O)(C1CCN([C@H]2CC[C@H](F)CC2)CC1)N(Cc1ccc(-c2nnc(C(F)F)o2)cc1)c1cccc(Cl)c1` [Compound 11725, N-(3-chlorophenyl)-N-(4-(5-(difluoromethyl)-1,3,4-oxadiazol-2-yl)benzyl)-1-((1r,4r)-4-fluorocyclohexyl)piperidine-4-sulfonamide], the “HDAC6 selectivity (fold)” value was 412 fold and the IC50 was found to be 0.243 µM.

For the compound `CCS(=O)(=O)N(Cc1ccc(-c2nnc(C(F)F)o2)cn1)c1cccc2cnn(C)c12` [Compound 11541, N-((5-(5-(difluoromethyl)-1,3,4-oxadiazol-2-yl)pyridin-2-yl)methyl)-N-(1-methyl-1H-indazol-7-yl)ethanesulfonamide], the “HDAC6 selectivity (fold)” value turned out to be 6250 fold and the 50% inhibitory concentration (IC50) worked out at 0.016 µM.

The record behind these values is patent US10538498B2, “1,3,4-oxadiazole sulfonamide derivative compounds as histone deacetylase 6 inhibitor, and the pharmaceutical composition comprising the same” (Chong Kun Dang Pharmaceutical Corp., priority 2015, dated 2020).
